Experimental data reported in patent US20240228504A1, “SUBSTITUTED TRICYCLIC AMIDES, ANALOGUES THEREOF, AND METHODS USING SAME” (Arbutus Biopharma Corporation, priority 2020, published 2024).
Where two headings read alike, the source gives them in different places.

Tested on: HBV rcDNA in HepDE19 cells
Assay: HepDE19 assay with bDNA quantitation of HBV rcDNA
Format: cell-based, hepatitis B virus
Conditions: inhibition of rcDNA formation, bDNA quantitation, read-out: DE-19bDNA EC50
[1] = Hepatitis B virus, HepDE19, HepDE19 assay

Row | Structure (SMILES) | EC50 (HepDE19 assay) [nM] | EC50 [1] [nM]
1 | CN(C(=O)c1cc2c(Cl)cc(F)cc2[nH]1)C1CNCc2[nH]c(=O)c3cc(F)c(F)cc3c21 (single isomer, unassigned) [Compound 460, 4-chloro-N-(8,9-difluoro-6-oxo-1,2,3,4,5,6-hexahydrobenzo[c][1,7]naphthyridin-1-yl)-6-fluoro-N-methyl-1H-indole-2-carboxamide] | 11200 | 
2 | CN(C(=O)c1ccc2scnc2c1)[C@@H]1COCc2[nH]c(=O)c3cc(F)c(F)cc3c21 [Compound 427, (S)-N-(8,9-Difluoro-6-oxo-1,4,5,6-tetrahydro-2H-pyrano[3,4-c]isoquinolin-1-yl)-N-methylbenzo[d]thiazole-5-carboxamide] |  | 170
3 | CN(C(=O)c1ccccc1)[C@@H]1COCc2[nH]c(=O)c3cc(F)c(F)cc3c21 [Compound 91, (S)-N-(8,9-Difluoro-6-oxo-1,4,5,6-tetrahydro-2H-pyrano[3,4-c]isoquinolin-1-yl)-N-methylbenzamide] |  | 1010
4 | CN(C(=O)c1cc2c(Cl)cccc2[nH]1)C1COCc2[nH]c(=O)c3cc(F)ccc3c21 (single isomer, unassigned) [Compound 424, 4-Chloro-N-(8-fluoro-6-oxo-1,4,5,6-tetrahydro-2H-pyrano[3,4-c]isoquinolin-1-yl)-N-methyl-1H-indole-2-carboxamide] | 510 | 
5 | CN(C(=O)c1cc2c([nH]1)CCC(F)(F)C2)C1COCc2[nH]c(=O)c3cc(F)c(F)cc3c21 (single isomer, unassigned) [Compound 48, N-(8,9-Difluoro-6-oxo-1,4,5,6-tetrahydro-2H-pyrano[3,4-c]isoquinolin-1-yl)-5,5-difluoro-N-methyl-4,5,6,7-tetrahydro-1H-indole-2-carboxamide] | 770 | 
6 | CN(C(=O)c1cc2c(C(F)F)cc(F)cc2[nH]1)[C@@H]1COCc2[nH]c(=O)c3cc(F)c(F)cc3c21 [Compound 230, (S)-N-(8,9-Difluoro-6-oxo-1,4,5,6-tetrahydro-2H-pyrano[3,4-c]isoquinolin-1-yl)-4-(difluoromethyl)-6-fluoro-N-methyl-1H-indole-2-carboxamide] |  | 10
7 | CCc1ccc(C(=O)N(C)[C@@H]2COCc3[nH]c(=O)c4cc(F)c(F)cc4c32)cc1F [Compound 147, (S)-N-(8,9-Difluoro-6-oxo-1,4,5,6-tetrahydro-2H-pyrano[3,4-c]isoquinolin-1-yl)-4-ethyl-3-fluoro-N-methylbenzamide] |  | 3300
8 | CN(C(=O)c1cc2c(F)c(F)ccc2[nH]1)C1COCc2[nH]c(=O)c3cc(F)c(F)cc3c21 (single isomer, unassigned) [Compound 45, N-(8,9-Difluoro-6-oxo-1,4,5,6-tetrahydro-2H-pyrano[3,4-c]isoquinolin-1-yl)-4,5-difluoro-N-methyl-1H-indole-2-carboxamide] | 310 | 
9 | CN(C(=O)c1cc(F)c(Cl)c(F)c1)[C@@H]1COCc2[nH]c(=O)c3cc(F)c(F)cc3c21 [Compound 173, 4-Chloro-N-(8,9-difluoro-6-oxo-2,4,5,6-tetrahydro-1H-pyrano[3,4-c]isoquinolin-1-yl)-3,5-difluoro-N-methylbenzamide] |  | 10
10 | CN(C(=O)c1cc2ccncc2[nH]1)[C@@H]1COCc2[nH]c(=O)c3cc(F)c(F)cc3c21 [Compound 307, (S)-N-(8,9-Difluoro-6-oxo-1,4,5,6-tetrahydro-2H-pyrano[3,4-c]isoquinolin-1-yl)-N-methyl-1H-pyrrolo[2,3-c]pyridine-2-carboxamide] |  | 200
11 | CN(C(=O)c1cc(F)c(C(F)F)c(F)c1)C1COCc2[nH]c(=O)c3cc(F)ccc3c21 (single isomer, unassigned) [Compound 178, 4-(Difluoromethyl)-3,5-difluoro-N-(8-fluoro-6-oxo-1,4,5,6-tetrahydro-2H-pyrano[3,4-c]isoquinolin-1-yl)-N-methylbenzamide] | 7400 | 
12 | CN(C(=O)c1cc2cc(F)c(F)cc2[nH]1)C1COCc2[nH]c(=O)c3cc(F)ccc3c21 (single isomer, unassigned) [Compound 49, 5,6-Difluoro-N-(8-fluoro-6-oxo-1,4,5,6-tetrahydro-2H-pyrano[3,4-c]isoquinolin-1-yl)-N-methyl-1H-indole-2-carboxamide] | 2100 | 
13 | CN(C(=O)c1cc(F)c(Br)c(F)c1)[C@@H]1COCc2[nH]c(=O)c3cc(F)c(F)cc3c21 [Compound 172, 4-Bromo-N-(8,9-difluoro-6-oxo-2,4,5,6-tetrahydro-1H-pyrano[3,4-c]isoquinolin-1-yl)-3,5-difluoro-N-methylbenzamide] |  | 10
14 | CN(C(=O)c1cc2n(c1)CCCC2)[C@@H]1COCc2[nH]c(=O)c3cc(F)c(F)cc3c21 [Compound 242, (S)-N-(8,9-Difluoro-6-oxo-1,4,5,6-tetrahydro-2H-pyrano[3,4-c]isoquinolin-1-yl)-N-methyl-5,6,7,8-tetrahydroindolizine-2-carboxamide] |  | 110
15 | CN(C(=O)c1cc2cncc(Br)c2o1)[C@@H]1COCc2[nH]c(=O)c3cc(F)c(F)cc3c21 [Compound 356, (S)-7-Bromo-N-(8,9-difluoro-6-oxo-1,4,5,6-tetrahydro-2H-pyrano[3,4-c]isoquinolin-1-yl)-N-methylfuro[3,2-c]pyridine-2-carboxamide] |  | 1500
16 | CN(C(=O)c1cc(F)c(Cl)c(F)c1)C1COCc2[nH]c(=O)c3cc(F)ccc3c21 (single isomer, unassigned) [Compound 174, 4-Chloro-3,5-difluoro-N-(8-fluoro-6-oxo-2,4,5,6-tetrahydro-1H-pyrano[3,4-c]isoquinolin-1-yl)-N-methylbenzamide] | 5100 | 
17 | CN(C(=O)c1ccc(C(F)(F)F)c(F)c1)C1COCc2[nH]c(=O)c3cscc3c21 (racemic) [Compound 133, 3-Fluoro-N-methyl-N-(4-oxo-4,5,8,9-tetrahydro-6H-pyrano[3,4-b]thieno[3,4-d]pyridin-9-yl)-4-(trifluoromethyl)benzamide] |  | 60
18 | CN(C(=O)c1cc2cc(F)c(F)cc2[nH]1)[C@@H]1COC(O)c2[nH]c(=O)c3cc(F)c(F)cc3c21 (stereo partly drawn) [Compound 187, N-((1S)-8,9-Difluoro-4-hydroxy-6-oxo-1,4,5,6-tetrahydro-2H-pyrano[3,4-c]isoquinolin-1-yl)-5,6-difluoro-N-methyl-1H-indole-2-carboxamide] |  | 10
19 | CN(C(=O)c1ccc2nncn2c1)[C@@H]1COCc2[nH]c(=O)c3cc(F)c(F)cc3c21 [Compound 70, (S)-N-(8,9-Difluoro-6-oxo-1,4,5,6-tetrahydro-2H-pyrano[3,4-c]isoquinolin-1-yl)-N-methyl-[1,2,4]triazolo[4,3-a]pyridine-6-carboxamide] |  | 22000
20 | CN(C(=O)c1c[nH]c(=O)c(C(F)(F)F)c1)[C@@H]1COCc2[nH]c(=O)c3cc(F)c(F)cc3c21 [Compound 193, (S)-N-(8,9-Difluoro-6-oxo-1,4,5,6-tetrahydro-2H-pyrano[3,4-c]isoquinolin-1-yl)-N-methyl-6-oxo-5-(trifluoromethyl)-1,6-dihydropyridine-3-carboxamide] |  | 3200
21 | CN(C(=O)c1ccc2c(c1)CCC2)[C@@H]1COCc2[nH]c(=O)c3cc(F)c(F)cc3c21 [Compound 408, (S)-N-(8,9-Difluoro-6-oxo-1,4,5,6-tetrahydro-2H-pyrano[3,4-c]isoquinolin-1-yl)-N-methyl-2,3-dihydro-1H-indene-5-carboxamide] |  | 40
22 | CN(C(=O)c1cc2c(C(F)F)cc(F)cc2[nH]1)C1CNCc2[nH]c(=O)c3cc(F)ccc3c21 (single isomer, unassigned) [Compound 259, 4-(Difluoromethyl)-6-fluoro-N-(8-fluoro-6-oxo-1,2,3,4,5,6-hexahydrobenzo[c][1,7]naphthyridin-1-yl)-N-methyl-1H-indole-2-carboxamide] | 5100 | 
23 | CN(Cc1ccc(Br)c(F)c1)[C@@H]1COCc2[nH]c(=O)c3cc(F)c(F)cc3c21 [Compound 486, (S)-1-((4-bromo-3-fluorobenzyl)(methyl)amino)-8,9-difluoro-1,5-dihydro-2H-pyrano[3,4-c]isoquinolin-6(4H)-one] |  | 8280
24 | CN(C(=O)c1cc2cc(F)ccc2[nH]1)[C@@H]1CCC(O)c2[nH]c(=O)c3cc(F)c(F)cc3c21 (single isomer, unassigned) [Compound 502] | 30 | 
25 | CN(C(=O)c1cc2c(F)cccn2c1)C1CS(=O)(=O)Cc2[nH]c(=O)c3cc(F)c(F)cc3c21 (single isomer, unassigned) [Compound 152, N-(8,9-Difluoro-3,3-dioxido-6-oxo-2,4,5,6-tetrahydro-1H-thiopyrano[3,4-c]isoquinolin-1-yl)-8-fluoro-N-methylindolizine-2-carboxamide] | 730 | 
26 | CN(C(=O)c1cc2c(Cl)cccc2[nH]1)C1COCc2[nH]c(=O)c3cc(F)ccc3c21 (single isomer, unassigned) [Compound 425, 4-Chloro-N-(8-fluoro-6-oxo-1,4,5,6-tetrahydro-2H-pyrano[3,4-c]isoquinolin-1-yl)-N-methyl-1H-indole-2-carboxamide] | 20 | 
27 | CN(C(=O)c1ccc(-c2cccc(F)c2)cc1)[C@@H]1COCc2[nH]c(=O)c3cc(F)c(F)cc3c21 [Compound 283, (S)-N-(8,9-Difluoro-6-oxo-1,4,5,6-tetrahydro-2H-pyrano[3,4-c]isoquinolin-1-yl)-3′-fluoro-N-methyl-[1,1′-biphenyl]-4-carboxamide] |  | 4700
28 | CN(C(=O)c1ccc2nccnc2c1)[C@@H]1COCc2[nH]c(=O)c3cc(F)c(F)cc3c21 [Compound 72, (S)-N-(8,9-Difluoro-6-oxo-1,4,5,6-tetrahydro-2H-pyrano[3,4-c]isoquinolin-1-yl)-N-methylquinoxaline-6-carboxamide] |  | 3800
29 | CN(C(=O)c1cc2cc(F)c(C(F)F)cc2[nH]1)[C@@H]1CCCc2[nH]c(=O)c3cc(F)ccc3c21 [Compound 479, (R)-6-(difluoromethyl)-5-fluoro-N-(8-fluoro-6-oxo-1,2,3,4,5,6-hexahydrophenanthridin-1-yl)-N-methyl-1H-indole-2-carboxamide] |  | 40
